Values quoted from earlier work as cited in patent publication US20100310474A1, “PROTEIN CAGES FOR THE DELIVERY OF MEDICAL IMAGING AND THERAPEUTIC AGENTS” (MONTANA STATE UNIVERSITY, priority 2002, published 2010).

Legend:
tumor cells = conditions: free peptide
[1] = system: experimental tumor lung colonization; conditions: free peptide
tumor angiogenesis = conditions: mice
platlets and neutrophils = conditions: cells bearing 67 kDa LBP

Row | Compound | cytotoxic effects on tumor cells (tumor cells in culture) | invasion of basement membranes by tumor cells (tumor cells) | experimental tumor lung colonization [1] | tumor angiogenesis (tumor angiogenesis) | toxic effect on platelets and neutrophils (platlets and neutrophils)
1 | Cc1ccc(C(=O)Nc2ccc(S(=O)(=O)O)c3cc(S(=O)(=O)O)cc(S(=O)(=O)O)c23)cc1NC(=O)c1cccc(NC(=O)Nc2cccc(C(=O)Nc3cc(C(=O)Nc4ccc(S(=O)(=O)O)c5cc(S(=O)(=O)O)cc(S(=O)(=O)O)c45)ccc3C)c2)c1 [suramin] | cytotoxic effects |  |  |  | 
2 | CDPGYIGSRC [peptide 11] |  | effectively blocks | reduces | inhibits | no toxic effect
